Several values for one entry are separate records, joined by “and”; a condition that tells them apart may be missing. Equal entries are not always repeated.
Columns and labels:
SLC6A8 = tested on: T1, SLC6A8; experiment: SLC6A8 creatine transport assay; assay type: cell-based, human; conditions: for SLC6A8 transport (Fig S2 curve point): technical replicates
T1 construct: V5; expressed in transfected cells; host or cells: Flp-In T-Rex 293 cells (Thermo Fisher), tetracycline-induced
Description: Supplementary Materials and Methods
Flp-In T-Rex 293 cells (Thermo Fisher) were engineered to induciblyexpress either V5-tagged human SLC1A5, SLC6A8 or SLC7A5 co-expressed with myc-DDK-tagged SLC3A2. Cells expressing SLC 1A5 or SLC6A8 were maintained in either DMEM or DMEM/F12 media supplemented with 10% FBS, 100 U/mL penicillin, 100 μg/mL streptomycin, 200 μg/mL hygromycin, and 10 μg/mL blasticidin. For cells expressing SLC7A5/SLC3A2, the media was additionally supplemented with 300 μg/mL geneticin. All cell lines were maintained at 37°C and 5% CO2. For transport experiments, all cell lines were plated in poly-D-lysine-coated 96-well plates at a density of 35,000 cells/well. One day after plating, expression of SLC1A5, SLC6A8 or SLC7A5 was induced by adding tetracycline at a concentration of 1 μg/mL. Cells were induced for 24 h prior to transport assays. […]
SLC6A8 creatine transport assay
Following a 24 h induction with tetracycline, cells were washed with PBS before JNT -517 was added in 8-point concentration-response diluted in DMEM. 3-guanidinopropionic acid was used as a positive control (33)at a concentrationof 1 mM and 0.5% DMSO was used as a negative control. Cells were incubated in a cell culture incubator for 30 minutes at 37°C and 5% CO 2 before 15 mM D3-labeled creatine (CDN Isotopes) was added as a transport substrate. After a 15 min incubation at 37°C and 5% CO2, cells were washed once with PBS. Cells were lysed in H2O with 500 nM D5-labeled creatine (CDN isotopes) as an internal standard for 1 h at 37°C.
Following lysis, a standard curve of dilution of D3-creatine was added to the last row of each plate. Plates were centrifuged for 5 min and supernatant was diluted 1:2 in H 2O. Sample desalting was performed on a high throughput Agilent RapidFire-365. From the analytical injection plate, approximately 40 μL of sample was desalted through an Agilent RapidFire Cartridge Graphitic Carbon Type D (G9206A) using water with 0.1% ammo nium hydroxide as the loading mobile phase A for 3000 milliseconds at a flow rate of 1.5 mL/min. The sample was then eluted from the cartridge using 80% acetonitrile containing 0.1% ammonium hydroxide for […]
An Agilent Q -ToF 6545 was […]
used as the analyzing mass spectrometer via electrospray ionization. Capillary voltage was set to 3 kV, with a gas temperature of 350°C. Nitrogen drying gas was applied at 12 L/min with a pressure of 40 psi, and sheath gas was set to 375°C with a flow of 12 L/min. All data were collected with a positive ion polarity and stored as centroid data. Agilent MassHunter QToF was […]
used as the integration software for measuring area under the peak for both D3 -creatine and D5-creatine as the internal standard. A linear regression was used from a standard curve of D3 - creatine to calculate absolute concentration from peak area. […]
Microbeta2 microplate counter (PerkinElmer). […]

healthy volunteers = experiment: Phase 1 safety and tolerability, single ascending dose (SAD) cohorts; assay type: in vivo, human; conditions: for AEs leading to IP discontinuation / Any CTCAE Grade ≥ 3 / Any TEAE / Death / SAE / TEAE Alanine aminotransferase increased / TEAE Aspartate aminotransferase increased / TEAE Blood creatine phosphokinase increased / TEAE Catheter site pain / TEAE Dizziness / TEAE Headache / TEAE Hematuria / TEAE Nausea / TEAE Pyrexia / TEAE Syncope / TEAE Upper respiratory tract infection / TEAE Urinary tract infection: n = 6
Description: Parts A and B of this phase 1, randomized, double-blind, placebo-controlled SAD and MAD oral dose study with JNT-517 were conducted in healthy volunteers. The primary objective for these studies was to assess the safety and tolerability of single and multiple doses of JNT-517 in healthy participants. The secondary objective for these studies was to assess the PK of single and multiple oral doses of JNT-517.
Eligible participants included males and females 18 to 55 years of age, medically healthy with no clinically notable medical history, a BMI of 18–40 kg/m^2 and total body weight > 50 kg (110 lbs), and who have been nonsmokers for at least 2 weeks prior to and throughout dosing.
In total, 40 participants who were healthy adult were randomized to receive JNT-517 (10–170 mg) or placebo (3:1 ratio) in 5 cohorts of 8 participants as SADs. […] Within each SAD cohort, a sentinel group of 2 participants were initially randomized to receive JNT-517 or placebo in a 1:1 ratio. Once safety was confirmed for these 2 sentinel participants over a 48-hour observation period, the remaining 6 participants in the same cohort were randomized 5:1 to receive JNT-517 or placebo. Both JNT-517 and placebo were administered as an on-site compounded suspension.
In both SAD and MAD studies, safety and tolerability were assessed by AE monitoring, clinical laboratory tests (blood chemistries, hematology, coagulation, serology, and urinalysis), vital signs, 12-lead electrocardiograms, and physical examinations. Safety assessment and corresponding samples were collected on day-1 prior to dosing and days 1, 2, 3, and 8 for the SAD study or throughout the 14 days of dosing and day 21 for the MAD study.

With `NC(=O)N1CCC[C@@H](N(C(=O)NCc2ccc(OC(F)(F)F)cc2F)C2CC2)C1` [JNT-517] the “SLC6A8 transport (Fig S2 curve point)” value (SLC6A8; 0.0160037 uM) was 97.4 and 85.6, the “SLC6A8 transport (Fig S2 curve point)” value (SLC6A8; 0.048011 uM) was 94 and 85 and the “SLC6A8 transport (Fig S2 curve point)” value (SLC6A8; 0.144033 uM) was 99.7 and 86.6. The “SLC6A8 transport (Fig S2 curve point)” value (SLC6A8; 0.432099 uM) was 93.6 and 86.7, the “SLC6A8 transport (Fig S2 curve point)” value (SLC6A8; 1.2963 uM) was 93.8 and 90.6 and the “SLC6A8 transport (Fig S2 curve point)” value (SLC6A8; 3.88889 uM) was 97.6 and 89.5. For the same compound, the “SLC6A8 transport (Fig S2 curve point)” value (SLC6A8; 11.6667 uM) was 90.1 and 92.7, the “SLC6A8 transport (Fig S2 curve point)” value (SLC6A8; 35 uM) was 95.9 and 86.1 and the “inhibition of SLC6A8” value (SLC6A8; concentrations up to 35 μM) was “did not inhibit”. For the same compound, the “AEs leading to IP discontinuation” value (healthy volunteers; SAD 10 mg) was 0 Number (%), the “Any CTCAE Grade ≥ 3” value (healthy volunteers; SAD 10 mg) was 0 Number (%) and the “Any TEAE” value (healthy volunteers; SAD 10 mg) was 2 (33.3) Number (%). For the same compound, the Death (healthy volunteers; SAD 10 mg) was 0 Number (%), the SAE (healthy volunteers; SAD 10 mg) was 0 Number (%) and the “TEAE Alanine aminotransferase increased” value (healthy volunteers; SAD 10 mg) was 0 Number (%). For the same compound, the “TEAE Aspartate aminotransferase increased” value (healthy volunteers; SAD 10 mg) was 0 Number (%), the “TEAE Blood creatine phosphokinase increased” value (healthy volunteers; SAD 10 mg) was 0 Number (%) and the “TEAE Catheter site pain” value (healthy volunteers; SAD 10 mg) was 1 (16.7) Number (%). The “TEAE Dizziness” value (healthy volunteers; SAD 10 mg) was 1 (16.7) Number (%), the “TEAE Headache” value (healthy volunteers; SAD 10 mg) was 1 (16.7) Number (%) and the “TEAE Hematuria” value (healthy volunteers; SAD 10 mg) was 0 Number (%). The “TEAE Nausea” value (healthy volunteers; SAD 10 mg) was 1 (16.7) Number (%), the “TEAE Pyrexia” value (healthy volunteers; SAD 10 mg) was 0 Number (%) and the “TEAE Syncope” value (healthy volunteers; SAD 10 mg) was 0 Number (%). For the same compound, the “TEAE Upper respiratory tract infection” value (healthy volunteers; SAD 10 mg) was 0 Number (%), the “TEAE Urinary tract infection” value (healthy volunteers; SAD 10 mg) was 0 Number (%) and the “AEs leading to IP discontinuation” value (healthy volunteers; SAD 25 mg) was 0 Number (%). For the same compound, the “Any CTCAE Grade ≥ 3” value (healthy volunteers; SAD 25 mg) was 1 (16.7) Number (%), the “Any TEAE” value (healthy volunteers; SAD 25 mg) was 2 (33.3) Number (%) and the Death (healthy volunteers; SAD 25 mg) was 0 Number (%). For the same compound, the SAE (healthy volunteers; SAD 25 mg) was 0 Number (%), the “TEAE Alanine aminotransferase increased” value (healthy volunteers; SAD 25 mg) was 1 (16.7) Number (%) and the “TEAE Aspartate aminotransferase increased” value (healthy volunteers; SAD 25 mg) was 1 (16.7) Number (%). For the same compound, the “TEAE Blood creatine phosphokinase increased” value (healthy volunteers; SAD 25 mg) was 1 (16.7) Number (%), the “TEAE Catheter site pain” value (healthy volunteers; SAD 25 mg) was 0 Number (%) and the “TEAE Dizziness” value (healthy volunteers; SAD 25 mg) was 0 Number (%). The “TEAE Headache” value (healthy volunteers; SAD 25 mg) was 0 Number (%), the “TEAE Hematuria” value (healthy volunteers; SAD 25 mg) was 1 (16.7) Number (%) and the “TEAE Nausea” value (healthy volunteers; SAD 25 mg) was 0 Number (%). For the same compound, the “TEAE Pyrexia” value (healthy volunteers; SAD 25 mg) was 0 Number (%), the “TEAE Syncope” value (healthy volunteers; SAD 25 mg) was 0 Number (%) and the “TEAE Upper respiratory tract infection” value (healthy volunteers; SAD 25 mg) was 0 Number (%). The “TEAE Urinary tract infection” value (healthy volunteers; SAD 25 mg) was 0 Number (%), the “AEs leading to IP discontinuation” value (healthy volunteers; SAD 50 mg) was 0 Number (%) and the “Any CTCAE Grade ≥ 3” value (healthy volunteers; SAD 50 mg) was 1 (16.7) Number (%). The “Any TEAE” value (healthy volunteers; SAD 50 mg) was 2 (33.3) Number (%), the Death (healthy volunteers; SAD 50 mg) was 0 Number (%) and the SAE (healthy volunteers; SAD 50 mg) was 0 Number (%). For the same compound, the “TEAE Alanine aminotransferase increased” value (healthy volunteers; SAD 50 mg) was 0 Number (%), the “TEAE Aspartate aminotransferase increased” value (healthy volunteers; SAD 50 mg) was 0 Number (%) and the “TEAE Blood creatine phosphokinase increased” value (healthy volunteers; SAD 50 mg) was 0 Number (%). The “TEAE Catheter site pain” value (healthy volunteers; SAD 50 mg) was 0 Number (%), the “TEAE Dizziness” value (healthy volunteers; SAD 50 mg) was 0 Number (%) and the “TEAE Headache” value (healthy volunteers; SAD 50 mg) was 1 (16.7) Number (%). For the same compound, the “TEAE Hematuria” value (healthy volunteers; SAD 50 mg) was 0 Number (%), the “TEAE Nausea” value (healthy volunteers; SAD 50 mg) was 0 Number (%) and the “TEAE Pyrexia” value (healthy volunteers; SAD 50 mg) was 0 Number (%). For the same compound, the “TEAE Syncope” value (healthy volunteers; SAD 50 mg) was 1 (16.7) Number (%), the “TEAE Upper respiratory tract infection” value (healthy volunteers; SAD 50 mg) was 1 (16.7) Number (%) and the “TEAE Urinary tract infection” value (healthy volunteers; SAD 50 mg) was 0 Number (%). The “AEs leading to IP discontinuation” value (healthy volunteers; SAD 100 mg) was 0 Number (%), the “Any CTCAE Grade ≥ 3” value (healthy volunteers; SAD 100 mg) was 0 Number (%) and the “Any TEAE” value (healthy volunteers; SAD 100 mg) was 0 Number (%). The Death (healthy volunteers; SAD 100 mg) was 0 Number (%), the SAE (healthy volunteers; SAD 100 mg) was 0 Number (%) and the “TEAE Alanine aminotransferase increased” value (healthy volunteers; SAD 100 mg) was 0 Number (%). For the same compound, the “TEAE Aspartate aminotransferase increased” value (healthy volunteers; SAD 100 mg) was 0 Number (%), the “TEAE Blood creatine phosphokinase increased” value (healthy volunteers; SAD 100 mg) was 0 Number (%) and the “TEAE Catheter site pain” value (healthy volunteers; SAD 100 mg) was 0 Number (%). The “TEAE Dizziness” value (healthy volunteers; SAD 100 mg) was 0 Number (%), the “TEAE Headache” value (healthy volunteers; SAD 100 mg) was 0 Number (%) and the “TEAE Hematuria” value (healthy volunteers; SAD 100 mg) was 0 Number (%). For the same compound, the “TEAE Nausea” value (healthy volunteers; SAD 100 mg) was 0 Number (%), the “TEAE Pyrexia” value (healthy volunteers; SAD 100 mg) was 0 Number (%) and the “TEAE Syncope” value (healthy volunteers; SAD 100 mg) was 0 Number (%). For the same compound, the “TEAE Upper respiratory tract infection” value (healthy volunteers; SAD 100 mg) was 0 Number (%), the “TEAE Urinary tract infection” value (healthy volunteers; SAD 100 mg) was 0 Number (%) and the “AEs leading to IP discontinuation” value (healthy volunteers; SAD 170 mg) was 0 Number (%). The “Any CTCAE Grade ≥ 3” value (healthy volunteers; SAD 170 mg) was 0 Number (%), the “Any TEAE” value (healthy volunteers; SAD 170 mg) was 1 (16.7) Number (%) and the Death (healthy volunteers; SAD 170 mg) was 0 Number (%). For the same compound, the SAE (healthy volunteers; SAD 170 mg) was 0 Number (%), the “TEAE Alanine aminotransferase increased” value (healthy volunteers; SAD 170 mg) was 0 Number (%) and the “TEAE Aspartate aminotransferase increased” value (healthy volunteers; SAD 170 mg) was 0 Number (%). The “TEAE Blood creatine phosphokinase increased” value (healthy volunteers; SAD 170 mg) was 0 Number (%), the “TEAE Catheter site pain” value (healthy volunteers; SAD 170 mg) was 0 Number (%) and the “TEAE Dizziness” value (healthy volunteers; SAD 170 mg) was 0 Number (%). The “TEAE Headache” value (healthy volunteers; SAD 170 mg) was 0 Number (%), the “TEAE Hematuria” value (healthy volunteers; SAD 170 mg) was 0 Number (%) and the “TEAE Nausea” value (healthy volunteers; SAD 170 mg) was 0 Number (%). The “TEAE Pyrexia” value (healthy volunteers; SAD 170 mg) was 1 (16.7) Number (%), the “TEAE Syncope” value (healthy volunteers; SAD 170 mg) was 0 Number (%) and the “TEAE Upper respiratory tract infection” value (healthy volunteers; SAD 170 mg) was 0 Number (%). The “TEAE Urinary tract infection” value (healthy volunteers; SAD 170 mg) was 1 (16.7) Number (%), the “incidence of adverse events (AE)” value (healthy volunteers; SAD cohorts, all JNT-517 doses (7 of 30)) was 23.3% and the safety and tolerability (healthy volunteers; healthy participants, SAD 10–170 mg and MAD 14 days) was “safe and well tolerated”.
